{"source": "patent US9057727B2", "about": "“Screening methods using G-protein coupled receptors and related compositions” (The General Hospital Corporation, priority 2007, dated 2015)", "key": {"[1]": {"assay": "Bone turnover markers (PINP, osteocalcin, CTX) in mice, daily treatment", "type": "in vivo", "conditions": "5 nmol/kg i.v. daily, days 6 and 13", "description": "FIGS. 30A-30F are graphs showing the effects of PTH analogs on plasma bone markers in mice. Mice (C57BL/6, males, 3 months) were intravenously injected daily with either vehicle, rPTH(1-34) (SEQ ID NO:130), M-PTH(1-34) (SEQ ID NO:12), or (EALK)-PTHrP(1-30) (SEQ ID NO:90) (5 nmol/kg; n=7 group) for 14 days. Markers of bone turnover (PINP, CTX and osteocalcin) were assessed by ELISA in blood at day 6 (FIGS. 30A, 30C, and 30E, respectively) and 13 (FIGS. 30B, 30D, and 30F, respectively).\nA second set of experiments was performed in which mice received 5 nmol/kg intravenous daily treatment with rPTH(1-34), M-PTH(1-34), or EALK-PTHrP(1-30) for 14 days. Blood samples were taken at days 6 and 13, and markers of bone turnover (PINP, osteocalcin and CTX) were assessed by ELISA."}, "[2]": {"biological_target": "T1, human PTHR, G protein-uncoupled conformation (R^0) (Homo sapiens, UniProt Q03431)", "T1 construct": "expressed in transfected cells; host or cells: COS-7, transient (Fugene-6)", "T1 sequence (Q03431 27-593)": "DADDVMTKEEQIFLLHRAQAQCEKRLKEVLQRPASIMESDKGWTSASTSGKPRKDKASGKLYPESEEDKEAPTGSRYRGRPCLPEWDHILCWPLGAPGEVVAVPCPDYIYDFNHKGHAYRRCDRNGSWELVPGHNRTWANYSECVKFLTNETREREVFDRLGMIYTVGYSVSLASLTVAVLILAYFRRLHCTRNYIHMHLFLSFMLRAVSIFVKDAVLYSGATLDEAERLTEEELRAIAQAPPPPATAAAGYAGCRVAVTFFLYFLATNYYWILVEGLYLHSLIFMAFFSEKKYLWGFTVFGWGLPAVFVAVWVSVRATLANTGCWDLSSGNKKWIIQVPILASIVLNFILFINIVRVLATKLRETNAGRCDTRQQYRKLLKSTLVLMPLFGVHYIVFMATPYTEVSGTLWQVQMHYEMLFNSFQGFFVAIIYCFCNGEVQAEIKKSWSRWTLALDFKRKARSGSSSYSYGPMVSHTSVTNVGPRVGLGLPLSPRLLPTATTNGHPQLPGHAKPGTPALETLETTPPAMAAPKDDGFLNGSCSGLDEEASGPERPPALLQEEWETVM", "assay": "Competition binding to R0 conformation of hPTHR (COS-7 membranes, GTPγS, 125I-PTH(1-34) tracer)", "conditions": "Table 5; fold weaker affinity for R0 than RG", "in_short": "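Membranes from hPTHR-transfected COS-7 cells (20-100 μg/mL protein) incubated 90 min with radioligand (~150,000 cpm/ml) and unlabeled ligands, then filtered. Specific binding expressed as % of binding without competitor.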"}, "[3]": {"assay": "Serum and urinary calcium and phosphate in TPTX rats", "type": "in vivo", "conditions": "single i.v. 1.25 nmol/kg", "description": "Five-week-old male Crl:CD(SD) rats were obtained from Charles River Laboratories Japan, Inc. (Kanagawa, Japan) and acclimated for 1 week under standard laboratory conditions at 20-26° C. and 35-75% humidity. The rats received free access to tap water and standard rodent chow (CE-2) containing 1.1% calcium, 1.0% phosphate and 250 IU/100 g of vitamin D3 (Clea Japan, Inc., Shizuoka, Japan).\nThyroparathyroidectomy (TPTX) was performed on six-week-old rats. TPTX rats were selected for use based on serum ionized calcium (iCa) levels (<1.0 mM) in samples taken from tail vein bleeding at 24 hours or […] after the operation using the electrode method. The TPTX rats were divided into six groups of five animals based on iCa levels at 48 hours after the operation. TPTX-vehicle group intravenously received the vehicle alone (10 mM acetic acid solution) at a dose of 1 ml/kg body weight administered to the tail vein.\nBlood was obtained from the tail vein for detecting iCa at 1, 2, 4, 6, and 24 hours after each injection. Ionized calcium levels were determined by the electrode method using an autoanalyzer (M-634, Chiba Corning Diagnostics Co. Ltd., Tokyo, Japan).\nWe also studied the effects of the M-PTH(1-14)/PTHrP(15-36) hybrid peptide (SP-PTH) on serum and urinary calcium and phosphate."}, "[4]": {"assay": "Bone structural parameters after two-week daily treatment in mice (Piximus, microCT)", "type": "in vivo", "description": "FIG. 31 is a set of images showing the effects of two-week daily treatment of R^0 and RG ligands on trabecular and cortical bone structure in mice. Mice (C57BL/6, males, 3 months) were treated (i.v.) with either vehicle, rPTH(1-34) (SEQ ID NO:130), M-PTH(1-34) (SEQ ID NO:12), or E^18,A^22,L^25,K^26 (EALK)PTHrP(1-30) (SEQ ID NO:90) (5 nmol/kg; n=7 group), daily for 14 days, and femurs were analyzed by μCT.\nAs described above, mice were treated intravenously) with either vehicle, rPTH(1-34), M-PTH(1-34), or EALK-PTHrP(1-30) daily for 14 days."}, "NaPi-IIc": {"tested_on": "NaPi-IIc", "assay": "NaPi-IIc immunostaining in renal PT cells of injected mice", "type": "in vivo", "conditions": "interval 4 to 6 h", "description": "(§1) To impair PLC signaling, we replaced alanine at position 1 of M-PTH(1-28) with tryptophan, in accordance with findings of Bisello and colleagues (J Biol Chem 277:38524-30, 2002) showing that such bulky substitutions at this position selectively impair PLC signaling."}, "hPTHR [5]": {"biological_target": "T2, hPTHR (Homo sapiens, UniProt Q03431)", "T2 sequence (Q03431 27-593)": "T1 sequence (Q03431 27-593)", "assay": "Delayed cAMP response after ligand wash-out in HKRK-B64 cells", "type": "cell-based", "parameters": "expressed in transfected cells", "conditions": "HKRK-B64, 60 minutes after wash-out; read-out: cAMP response after wash-out, % of maximum response", "protocol": "The cells were pre-treated for 10 minutes with either buffer alone (basal) or buffer containing ligand (100 nM); at t=0, the cells were washed, incubated in buffer for the times indicated (wash-out phase), treated with 3-isobutyl-1-methylxanthine (IBMX) for five minutes, and then assessed for intracellular cAMP. […] The cAMP level in cells treated with IBMX in the absence of ligand was 2.0±0.3 pmole/well. Data are means (±s.e.m.) of three experiments, each performed in duplicate. […] Analogs were similarly assessed in HKRK-B64 cells (90,000 hPTHRs/cell) at a single time-point, 60 minutes after ligand wash-out (FIG. 5B). For each peptide, the data are expressed as a percentile of the maximum cAMP responses (indicated in side panel) produced in cells treated concomitantly with that ligand and IBMX for 10 minutes and omitting the wash-out phase. […] Data are means (±s.e.m) of four experiments, each performed in triplicate.\nThe capacity of the ligands to produce sustained (or delayed) cAMP signaling responses was further examined in HKRK-B64 cells, which express the hPTHR at a more physiological level than do HKRK-B7 cells (90,000 per cell vs. 950,000/cell).\nThe capacities of ligands to produce a delayed cAMP response in cells after a brief exposure to the ligand was assessed as follows. The cells in 24-well plates were rinsed in binding buffer (50 mM Tris-HCl, pH 7.7, 100 mM NaCl, 5 mM KCl, 2 mM CaCl2, 5% heat-inactivated horse serum, 0.5% heat-inactivated fetal bovine serum) and then incubated in binding buffer with or without a peptide ligand (1×10^−7 or 3×10^−7 M) for 10 minutes at room temperature; the buffer was then removed, the cells were washed three times with binding buffer, incubated further in binding buffer for varying times (1 to 120 minutes); the buffer was then replaced by binding buffer containing IBMX (2 mM), and after an additional five minute incubation, the intracellular cAMP was quantified."}, "[6]": {"tested_on": "opossum kidney (OK) cell line", "assay": "Phosphate uptake inhibition in opossum kidney cells", "type": "cell-based", "conditions": "10 minute exposure, 1×10^−7 M", "protocol": "Data are means (±s.e.m.) of two experiments, each performed in duplicate.\nInhibition of phosphate uptake was assessed using the opossum kidney (OK) cell line, which are derived from the renal proximal tubule.\nCells were treated for 10 minutes at 37° C. with media (vehicle) or media containing a peptide ligand (1×10^−7 M); then (t=0), the cells were then rinsed three times with media and incubated in alone at 37° C. for varying times. At each time point, ^32PO4 was then added to the media, and after five minutes of incubation, the cells were washed, lysed, and the lysate was counted for ^32P beta radioactivity by liquid scintillation counting."}, "hPTHR [7]": {"biological_target": "T2, hPTHR", "assay": "Delayed cAMP response after ligand wash-out in HKRK-B7 cells", "type": "cell-based", "parameters": "expressed in transfected cells", "protocol": "The cells were pre-treated for 10 minutes with either buffer alone (basal) or buffer containing ligand (100 nM); at t=0, the cells were washed, incubated in buffer for the times indicated (wash-out phase), treated with 3-isobutyl-1-methylxanthine (IBMX) for five minutes, and then assessed for intracellular cAMP. […] Data are means (±s.e.m.) of three experiments, each performed in duplicate. […] Analogs were similarly assessed in HKRK-B64 cells (90,000 hPTHRs/cell) at a single time-point, 60 minutes after ligand wash-out (FIG. 5B). For each peptide, the data are expressed as a percentile of the maximum cAMP responses (indicated in side panel) produced in cells treated concomitantly with that ligand and IBMX for 10 minutes and omitting the wash-out phase. […] Data are means (±s.e.m) of four experiments, each performed in triplicate.\nCells were thus treated with a ligand for ten minutes, washed to remove unbound ligand. At various times after washing, IBMX was applied for five minutes, and the resulting intracellular cAMP was measured. […]\nFollowing treatment of cells with a ligand, the intracellular cAMP levels were measured by radioimmuno assay, as described (Shimizu et al., J. Biol. Chem. 276:49003-49012 (2001)). The capacities of ligands to produce a delayed cAMP response in cells after a brief exposure to the ligand was assessed as follows. […]"}, "NaPi-IIa": {"tested_on": "NaPi-IIa", "assay": "NaPi-IIa staining in renal PT cells of injected mice", "conditions": "mouse, in vivo", "description": "To help elucidate further the signaling mechanisms by which PTH ligands regulate renal phosphate transport, we developed a derivative of M-PTH(1-28) that is defective for PLC/PKC signaling, yet retains potent cAMP/PKA signaling activity. Such a peptide allows for study of the relative roles of the PKA and PKC signaling pathways in modulating the function and surface expression of the Pi transporters NaPi-IIa and NaPi-IIc in proximal tubule (PT) cells. The analog M-PTH(1-28) (M=Ala^1,Aib^3,Gln^10, Har^11,Trp^14,Arg^19), a potent agonist for cAMP and IP3 signaling pathways, induces, when injected into mice, prolonged hypophosphatemic and hypercalcemic effects.\nas §1"}, "[8]": {"assay": "Plasma phosphate in mice (20 nmol/kg)", "type": "in vivo", "description": "as §1"}, "[9]": {"conditions": "Piximus, mice, 5 nmol/kg i.v. daily 14 days"}}, "note": "“Also recorded” adds a separate entry of the source.", "data": [{"smiles": "CC[C@H](C)[C@H](NC(=O)[C@H](CCC(=O)O)NC(=O)[C@H](CO)NC(=O)[C@@H](NC(=O)[C@H](C)N)C(C)C)C(=O)N[C@@H](CCC(N)=O)C(=O)N[C@@H](CC(C)C)C(=O)N[C@@H](CCSC)C(=O)N[C@@H](Cc1c[nH]cn1)C(=O)N[C@@H](CC(N)=O)C(=O)N[C@@H](CC(C)C)C(=O)NCC(=O)N[C@@H](CCCCN)C(=O)N[C@@H](Cc1c[nH]cn1)C(=O)N[C@@H](CC(C)C)C(=O)N[C@@H](C)C(=O)N[C@@H](CO)C(=O)N[C@H](C(=O)N[C@@H](CCC(=O)O)C(=O)N[C@@H](CCCNC(=N)N)C(=O)N[C@@H](CCSC)C(=O)N[C@@H](CCC(N)=O)C(=O)N[C@@H](Cc1c[nH]c2ccccc12)C(=O)N[C@@H](CC(C)C)C(=O)N[C@@H](CCCNC(=N)N)C(=O)N[C@@H](CCCCN)C(=O)N[C@@H](CCCCN)C(=O)N[C@@H](CC(C)C)C(=O)N[C@@H](CCC(N)=O)C(=O)N[C@@H](CC(=O)O)C(=O)N[C@H](C(=O)N[C@@H](Cc1c[nH]cn1)C(=O)N[C@@H](CC(N)=O)C(=O)N[C@@H](Cc1ccccc1)C(N)=O)C(C)C)C(C)C", "note": "[PTH(1-34), reference compound]", "values": [{"measurement": "effect on bone turnover markers, in words", "setting": "[1]", "result": "only minor effects on bone markers"}, {"measurement": "R0:RG", "setting": "[2]", "result": "five"}, {"measurement": "serum calcium (sCa) and serum phosphorus (sPi), in words", "setting": "[3]", "result": "transiently increased serum calcium (sCa) and decreased serum phosphorus (sPi) levels at 1 hr, but not to the normal range"}, {"measurement": "urinary calcium 0-6 hours, in words", "setting": "[3]", "result": "did not change"}, {"measurement": "urinary phosphate 0-6 hours, in words", "setting": "[3]", "result": "did not change"}, {"measurement": "Lumbar Spine BMD", "setting": "[4]; [9]", "result": "0.0464 ± 0.0002", "unit": "g/cm^2"}, {"measurement": "Total Femur BMD", "setting": "[4]; [9]", "result": "0.0615 ± 0.0003", "unit": "g/cm^2"}, {"measurement": "Conn-Dens.", "setting": "[4]; microCT distal femur", "result": "116 ± 8 1/mm^3"}, {"measurement": "Cort Th.", "setting": "[4]; microCT distal femur", "result": "229 ± 11", "unit": "μm"}, {"measurement": "Tb · N", "setting": "[4]; microCT distal femur", "result": "4.02 ± 0.14 1/mm"}, {"measurement": "Tb · Th", "setting": "[4]; microCT distal femur", "result": "57.5 ± 1.4", "unit": "μm"}, {"measurement": "TbSp", "setting": "[4]; microCT distal femur", "result": "246 ± 10", "unit": "μm"}, {"measurement": "TrabecularBV/TV", "setting": "[4]; microCT distal femur", "result": "17.4 ± 1.2", "unit": "%"}, {"measurement": "BA", "setting": "[4]; microCT mid femur", "result": "0.839 ± 0.032", "unit": "mm^2"}, {"measurement": "BA/TA", "setting": "[4]; microCT mid femur", "result": "38.7 ± 0.7", "unit": "%"}, {"measurement": "Cort Th.", "setting": "[4]; microCT mid femur", "result": "172 ± 5", "unit": "μm"}, {"measurement": "MA", "setting": "[4]; microCT mid femur", "result": "1.33 ± 0.02", "unit": "mm^2"}, {"measurement": "TA", "setting": "[4]; microCT mid femur", "result": "2.17 ± 0.05", "unit": "mm^2"}, {"measurement": "NaPi-IIc immunostaining, in words", "setting": "NaPi-IIc", "result": "unchanged"}, {"measurement": "Emax", "setting": "hPTHR [5]", "result": 47, "unit": "%"}, {"measurement": "duration of phosphate uptake inhibition, in words", "setting": "[6]", "result": "much shorter duration of phosphate uptake inhibition"}, {"measurement": "time course of cAMP responses after wash-out compared with other ligands, in words", "setting": "hPTHR [7]", "result": "not different from those induced by PTHrP(1-36); also recorded: nearly identical to those produced by Ile^5-PTHrP(1-36)"}, {"measurement": "apical and cytoplasmic NaPi-IIa staining, in words", "setting": "NaPi-IIa", "result": "returned to vehicle control levels at 6 h"}, {"measurement": "time of maximal suppression of plasma phosphate", "setting": "[8]", "result": 2, "unit": "h"}, {"measurement": "time of recovery of plasma phosphate to vehicle control levels", "setting": "[8]", "result": 4, "unit": "h"}]}]}
